Data taken from ChEMBL document CHEMBL4421726, “Novel prodrug salts” (2016).
Activity calls are given as the source filed them. The calls are words filed in the database; no cut-off is given here.

Key:
[1] = target: Aquaporin-5 (Homo sapiens) (UniProt P55064); experiment: Inhibition of AQP5 (unknown origin) expressed in CHO cells assessed as reduction in aquaporin-mediated cell Volume shrinkage at 10 uM by light scattering based assay
[2] = target: T1, Aquaporin-1 (Homo sapiens) (UniProt P29972); experiment: Inhibition of AQP1 (unknown origin) expressed in CHO cells assessed as reduction in aquaporin-mediated cell Volume shrinkage at 10 uM by light scattering based assay
T1 sequence (whole entry): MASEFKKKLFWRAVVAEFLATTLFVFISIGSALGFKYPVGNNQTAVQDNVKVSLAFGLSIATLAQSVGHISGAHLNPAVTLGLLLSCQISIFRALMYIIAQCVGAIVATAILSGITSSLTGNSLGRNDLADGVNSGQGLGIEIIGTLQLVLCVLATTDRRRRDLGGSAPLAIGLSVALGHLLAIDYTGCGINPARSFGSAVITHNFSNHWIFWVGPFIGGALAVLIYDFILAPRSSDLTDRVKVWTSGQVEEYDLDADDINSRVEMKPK

[3] = target: T2, Aquaporin-2 (Homo sapiens) (UniProt P41181); experiment: Inhibition of AQP2 (unknown origin) expressed in CHO cells assessed as reduction in aquaporin-mediated cell Volume change at 10 uM by light scattering based assay
T2 sequence (whole entry): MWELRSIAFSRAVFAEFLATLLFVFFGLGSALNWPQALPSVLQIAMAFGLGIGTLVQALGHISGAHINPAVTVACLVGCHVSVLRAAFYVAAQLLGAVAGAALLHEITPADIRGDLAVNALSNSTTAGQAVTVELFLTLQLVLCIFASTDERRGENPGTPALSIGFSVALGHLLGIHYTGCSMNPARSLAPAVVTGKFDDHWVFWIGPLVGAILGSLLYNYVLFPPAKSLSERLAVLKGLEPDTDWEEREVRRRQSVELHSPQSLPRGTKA

[4] = target: Aquaporin-4 (Homo sapiens) (UniProt P55087); experiment: Inhibition of AQP4 (unknown origin) expressed in CHO cells assessed as reduction in water shock-induced aquaporin-mediated cell bursting at 10 uM incubated for 30 mins by calcein-AM fluorescence end-point assay; assay type: cell-based
[5] = Plasma concentration in mouse water toxicity model a at 0.76 mg/kg; assay type: organism-based; details: in vivo
Mus musculus [6] = experiment: Inhibition of water toxicity in mouse water toxicity model assessed as time to 50% survival for animals at 0.76 mg/kg relative to control; assay type: functional
Mus musculus [7] = experiment: Inhibition of water shock-induced cerebral edema in mouse water toxicity model assessed as reduction in extent of cerebral edema at 0.76 mg/kg by MRI analysis relative to control; assay type: functional, organism-based
[8] = Stability of the compound in pH 9.5 buffer assessed as compound hydrolysis at room temperature; assay type: physicochemical; details: read-out: Drug degradation
[9] = Stability of the compound in solid state assessed as compound hydrolysis; assay type: physicochemical
[10] = Stability of the compound in pH 9.5 buffer assessed as compound hydrolysis measured over 12 hrs; assay type: physicochemical; details: read-out: Drug degradation
[11] = Solubility in water; assay type: physicochemical
[12] = Drug elimination mouse plasma assessed as rate of drug elimination at 10 mg/kg, ip loading dose and 1 mg/ml at 8 ul/hr maintenance dose measured at 15 mins and 24 hrs post dose by LC-MS/MS analysis; assay type: ADME, organism-based
[13] = Stability of the compound in pH 7.5 buffer assessed as compound hydrolysis at room temperature; assay type: physicochemical; details: read-out: Drug degradation
[14] = Drug metabolism in mouse plasma assessed as N-3,5-bis(trifluoromethyl)phenyl-5-chloro-2-hydroxybenzamide level at 10 mg/kg, ip loading dose and 1 mg/ml at 8 ul/hr maintenance dose measured at 15 mins and 24 hrs post dose by LC-MS/MS analysis; assay type: ADME, organism-based; details: in vivo
[15] = Drug metabolism in mouse plasma assessed as formation of 2-3,5-bis(trifluoromethyl)phenylcarbamoyl-4-chlorophenyl phosphate bis-ethanolamine salt at 10 mg/kg, ip loading dose and 1 mg/ml at 8 ul/hr maintenance dose measured at 15 mins and 24 hrs post dose by LC-MS/MS analysis; assay type: ADME, organism-based; details: in vivo
[16] = Stability of the compound in pH 7.5 buffer assessed as compound hydrolysis measured over 12 hrs; assay type: physicochemical; details: read-out: Drug degradation
[17] = Drug metabolism in mouse plasma assessed as formation of N-3,5-bis(trifluoromethyl)phenyl-5-chloro-2-hydroxybenzamide at 10 mg/kg, ip loading dose and 1 mg/ml at 8 ul/hr maintenance dose measured at 15 mins and 24 hrs post dose by LC-MS/MS analysis; assay type: ADME, organism-based; details: in vivo
[18] = Drug metabolism in mouse plasma assessed as formation of N-3,5-bis(trifluoromethyl)phenyl-5-chloro-2-hydroxybenzamide measured within 5 mins; assay type: ADME, cell-free
Mus musculus [19] = experiment: Drug absorption mouse plasma assessed as rate of drug absorption at 10 mg/kg, ip loading dose and 1 mg/ml at 8 ul/hr maintenance dose measured at 15 mins and 24 hrs post dose by LC-MS/MS analysis; assay type: ADME, organism-based; details: in vivo
[20] = Stability of the compound in pH 8.5 buffer assessed as compound hydrolysis at room temperature; assay type: physicochemical; details: read-out: Drug degradation
[21] = Stability of the compound in pH 8.5 buffer assessed as compound hydrolysis measured over 12 hrs; assay type: physicochemical; details: read-out: Drug degradation
[22] = Stability of the compound assessed as compound hydrolysis at room temperature after 5 days; assay type: physicochemical; details: read-out: Drug degradation
Mus musculus [23] = experiment: Improvement in neurological outcome in intraluminal monofilament mouse model of middle cerebral artery occlusion assessed as reduction in death incidence at 2 mg/kg, ip loading dose and 1 mg/ml at 8 ul/hr maintenance dose; assay type: functional, organism-based
Mus musculus [24] = experiment: Improvement in neurological outcome in intraluminal monofilament mouse model of middle cerebral artery occlusion at 2 mg/kg, ip loading dose and 1 mg/ml at 8 ul/hr maintenance dose; assay type: functional, organism-based
Mus musculus [25] = experiment: Improvement in neurological outcome in intraluminal monofilament mouse model of middle cerebral artery occlusion assessed as reduction in severe paralysis progress at 2 mg/kg, ip loading dose and 1 mg/ml at 8 ul/hr maintenance dose; assay type: functional, organism-based

Aquaporin-4 (Homo sapiens), sequence (P55087 whole entry): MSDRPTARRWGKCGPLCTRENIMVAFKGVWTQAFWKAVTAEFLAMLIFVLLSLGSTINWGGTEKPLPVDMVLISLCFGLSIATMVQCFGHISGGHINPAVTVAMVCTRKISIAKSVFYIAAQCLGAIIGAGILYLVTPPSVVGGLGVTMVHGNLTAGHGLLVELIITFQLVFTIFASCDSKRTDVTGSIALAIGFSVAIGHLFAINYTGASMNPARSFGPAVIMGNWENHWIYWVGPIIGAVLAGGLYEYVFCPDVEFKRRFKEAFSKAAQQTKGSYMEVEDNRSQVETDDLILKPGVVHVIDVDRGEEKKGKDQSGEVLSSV
Aquaporin-5 (Homo sapiens), sequence (P55064 whole entry): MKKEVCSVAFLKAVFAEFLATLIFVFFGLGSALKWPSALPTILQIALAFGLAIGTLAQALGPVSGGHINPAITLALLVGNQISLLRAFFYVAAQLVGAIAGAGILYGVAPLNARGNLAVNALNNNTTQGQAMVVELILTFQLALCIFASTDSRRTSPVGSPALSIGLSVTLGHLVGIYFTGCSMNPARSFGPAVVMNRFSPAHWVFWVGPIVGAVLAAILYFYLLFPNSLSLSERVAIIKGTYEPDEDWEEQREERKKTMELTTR

O=C(Nc1cc(Cl)cc(Cl)c1)c1cc(Cl)ccc1O
inhibition [1]: inactive
inhibition [2]: inactive
inhibition [3]: 81%

O=C(Nc1cc(C(F)(F)F)cc(C(F)(F)F)c1)c1cc(Cl)ccc1O [IMD-0354]
inhibition [4]: Active
Cp [5]: 0.03 to 0.06 g
Time (Mus musculus [6]): 52 min
inhibition (Mus musculus [7]): Active

O=C(Nc1cc(C(F)(F)F)cc(C(F)(F)F)c1)c1cc(Cl)ccc1OP(=O)([O-])[O-].[Na+].[Na+]
degraded [8]: 1%
degraded ([9]; solid state, read-out: Drug degradation): 1%
degraded at 12 h [10]: < 1%
solubility [11]: 1000 to 10000 µg/mL

NCCO.NCCO.O=C(Nc1cc(C(F)(F)F)cc(C(F)(F)F)c1)c1cc(Cl)ccc1OP(=O)(O)O
k el [12]: 0.000283 s⁻¹
degraded [13]: 1%
Drug metabolism [14]: 400 ng/mL
Drug metabolism [15]: Metabolite_Notdetected
degraded at 12 h [16]: < 1%
Drug degradation [9]: 1%
solubility [11]: 10000 µg/mL
Drug metabolism [17]: Metabolite_Detected
Drug metabolism [18]: Metabolite_Detected
Ka (Mus musculus [19]): 0.12 min⁻¹

O=C(Nc1cc(C(F)(F)F)cc(C(F)(F)F)c1)c1cc(Cl)ccc1OP(=O)([O-])O.[Na+]
Drug degradation [9]: 1%
degraded [20]: 1%
degraded at 12 h [21]: < 1%

O=C(Nc1cc(C(F)(F)F)cc(C(F)(F)F)c1)c1cc(Cl)ccc1OP(=O)(O)O [listing 1 of 2 here]
degraded at 120 h [22]: < 1%

O=C(Nc1cc(C(F)(F)F)cc(C(F)(F)F)c1)c1cc(Cl)ccc1OP(=O)(O)O [listing 2 of 2 here]
Activity (Mus musculus [23]): Active
Activity (Mus musculus [24]): Active
Activity (Mus musculus [25]): Active
